Experimental data as given in PubChem BioAssay AID248 (DTP/NCI, 2004).
Several values for one entry are separate records, joined by “and”; a condition that tells them apart may be missing. Equal values may be shown once. Toxic doses and inconclusive results are not listed. Rule as the data show it: active = T/C of 150% or more; inactive = T/C below 125%.

System: L1210 leukemia ip in BDF1 mice, survival T/C
Test: NCI In Vivo Anticancer Drug Screen. Data for tumor model L1210 Leukemia (intraperitoneal) in B6D2F1 (BDF1) mice
Conditions: endpoint: mean survival time, higher = longer survival
Method in brief: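 Each compound was tested against a transplantable tumor grown in mice. The endpoint was survival, with treated animals benchmarked against vehicle controls as a simple ratio.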

[1] = dose: 100.0 mg/kg/injection, schedule: Q04DX003 (ip), vehicle: Klucel (hydroxypropylcellulose) (HPC)
[2] = dose: 200.0 mg/kg/injection, schedule: Q04DX003 (ip), vehicle: Klucel (hydroxypropylcellulose) (HPC)
[3] = dose: 400.0 mg/kg/injection, schedule: Q04DX003 (ip), vehicle: Klucel (hydroxypropylcellulose) (HPC)
[4] = dose: 100.0 mg/kg/injection, schedule: Q04DX003 (ip), vehicle: saline
[5] = dose: 200.0 mg/kg/injection, schedule: Q04DX003 (ip), vehicle: saline
[6] = dose: 400.0 mg/kg/injection, schedule: Q04DX003 (ip), vehicle: saline
[7] = dose: 100.0 mg/kg/injection, schedule: Q01DX001 (ip), vehicle: Klucel (hydroxypropylcellulose) (HPC)
[8] = dose: 200.0 mg/kg/injection, schedule: Q01DX001 (ip), vehicle: Klucel (hydroxypropylcellulose) (HPC)
[9] = dose: 100.0 mg/kg/injection, schedule: Q04DX003 (ip), vehicle: saline with Tween-80
[10] = dose: 200.0 mg/kg/injection, schedule: Q04DX003 (ip), vehicle: saline with Tween-80
[11] = dose: 400.0 mg/kg/injection, schedule: Q04DX003 (ip), vehicle: saline with Tween-80
[12] = dose: 100.0 mg/kg/injection, schedule: Q04DX002 (ip), vehicle: saline with Tween-80
[13] = dose: 200.0 mg/kg/injection, schedule: Q04DX002 (ip), vehicle: saline with Tween-80
[14] = dose: 400.0 mg/kg/injection, schedule: Q04DX002 (ip), vehicle: saline with Tween-80
[15] = dose: 75.0 mg/kg/injection, schedule: Q04DX003 (ip), vehicle: saline
[16] = dose: 150.0 mg/kg/injection, schedule: Q04DX003 (ip), vehicle: saline
[17] = dose: 300.0 mg/kg/injection, schedule: Q04DX003 (ip), vehicle: saline
[18] = dose: 100.0 mg/kg/injection, schedule: Q01DX001 (ip), vehicle: saline
[19] = dose: 200.0 mg/kg/injection, schedule: Q01DX001 (ip), vehicle: saline
[20] = dose: 100.0 mg/kg/injection, schedule: Q01DX009 (ip), vehicle: saline with Tween-80

Measured: T/C

CC(=O)OC1C(C)OC(OC2C=C3CCC4C(CCC5(C)C(c6ccc(=O)oc6)CCC45O)C3(C)CC2)C(OC(C)=O)C1OC(C)=O (configuration not stated)
inactive: dose: 6.25 mg/kg/injection, schedule: Q01DX009 (ip), vehicle: saline with Tween-80 102 % of control | dose: 12.5 mg/kg/injection, schedule: Q01DX009 (ip), vehicle: saline with Tween-80 100 % of control | dose: 12.5 mg/kg/injection, schedule: Q04DX003 (ip), vehicle: saline with Tween-80 105 % of control | dose: 25.0 mg/kg/injection, schedule: Q01DX009 (ip), vehicle: saline with Tween-80 103 % of control | dose: 25.0 mg/kg/injection, schedule: Q04DX003 (ip), vehicle: saline with Tween-80 105 % of control

Nc1ncccn1
inactive: [1] 101 % of control | [2] 93 % of control | [3] 101 % of control

COC(=O)C(C)O (configuration not stated)
inactive: [4] 97 % of control | [5] 105 % of control | [6] 107 % of control

Cc1ccccc1N=Cc1ccccc1O.[Co]
inactive: dose: 100.0 mg/kg/injection, schedule: Q01DX001 (ip), vehicle: other 102 % of control | dose: 200.0 mg/kg/injection, schedule: Q01DX001 (ip), vehicle: other 98 % of control

CC12CCC3C(CC=C4CC(SC(=N)N)CCC43C)C1CCC2=O (configuration not stated)
inactive: [7] 95 % of control | [1] 97 % of control | [8] 95 % of control | [2] 95 % of control | dose: 400.0 mg/kg/injection, schedule: Q01DX001 (ip), vehicle: Klucel (hydroxypropylcellulose) (HPC) 101 % of control | [3] 97 % of control

CC(O)c1ccc2ccccc2c1 (configuration not stated)
inactive: [9] 98 % of control | [10] 101 % of control | [11] 96 % of control

COc1ccc2c(c1)CC1c3[nH]c4ccccc4c3CCN1C2 (configuration not stated)
inactive: [7] 94 % of control | [8] 92 % of control

Cc1nc(-c2ccc(N=Cc3ccc(N(CCOS(C)(=O)=O)CCOS(C)(=O)=O)cc3Cl)cc2)c(C)s1
inactive: dose: 12.5 mg/kg/injection, schedule: Q01DX009 (ip), vehicle: Klucel (hydroxypropylcellulose) (HPC) 114 % of control | dose: 25.0 mg/kg/injection, schedule: Q01DX009 (ip), vehicle: Klucel (hydroxypropylcellulose) (HPC) 111 % of control

C#CCOCCBr
inactive: [9] 97 % of control | [10] 95 % of control

Cc1cccc(C2=N/C(=C\c3ccccc3)C(=O)O2)c1
inactive: [12] 95 % of control | [13] 89 % of control | [14] 89 % of control

CCN(CC)C(=O)N1CCN(c2ccc(Cl)cc2)CC1
inactive: dose: 75.0 mg/kg/injection, schedule: Q01DX001 (ip), vehicle: saline 106 % of control | [15] 103 % of control | dose: 150.0 mg/kg/injection, schedule: Q01DX001 (ip), vehicle: saline 94 % of control | [16] 100 % of control | dose: 300.0 mg/kg/injection, schedule: Q01DX001 (ip), vehicle: saline 108 % of control | [17] 91 % of control

CC(C)(C)c1ccccc1C(N)=O
inactive: dose: 100.0 mg/kg/injection, schedule: Q04DX003 (ip), vehicle: other 101 % of control | dose: 200.0 mg/kg/injection, schedule: Q04DX003 (ip), vehicle: other 109 % of control | dose: 400.0 mg/kg/injection, schedule: Q04DX003 (ip), vehicle: other 91 % of control

C=C(CCCCCCCCCCCCCCCC)C(=O)O
inactive: [12] 91 % of control | [14] 88 % of control

CCOP(=O)(OCC)OC(=C(F)F)P(=O)(OCC)OCC
inactive: [4] 98 % of control | [5] 101 % of control | [6] 96 % of control

O=c1n(C2OC(CO)C(O)C2O)ccc2nccn12 (configuration not stated)
inactive: dose: 2.5 mg/kg/injection, schedule: Q01DX009 (ip), vehicle: saline 98 % of control | dose: 3.13 mg/kg/injection, schedule: Q03HX024 (ip), vehicle: saline 98 % of control | dose: 5.0 mg/kg/injection, schedule: Q01DX009 (ip), vehicle: saline 95 % of control | dose: 6.25 mg/kg/injection, schedule: Q03HX024 (ip), vehicle: saline 96 % of control | dose: 10.0 mg/kg/injection, schedule: Q01DX009 (ip), vehicle: saline 98 % of control | dose: 12.5 mg/kg/injection, schedule: Q03HX024 (ip), vehicle: saline 100 % of control | dose: 20.0 mg/kg/injection, schedule: Q01DX009 (ip), vehicle: saline 106 % of control | dose: 25.0 mg/kg/injection, schedule: Q03HX024 (ip), vehicle: saline 100 % of control | dose: 40.0 mg/kg/injection, schedule: Q01DX009 (ip), vehicle: saline 101 % of control | dose: 50.0 mg/kg/injection, schedule: Q01DX005 (ip), vehicle: saline 95 % of control | dose: 50.0 mg/kg/injection, schedule: Q03HX024 (ip), vehicle: saline 122 % of control | dose: 100.0 mg/kg/injection, schedule: Q01DX005 (ip), vehicle: saline 103 % of control | dose: 200.0 mg/kg/injection, schedule: Q01DX005 (ip), vehicle: saline 92 % of control | dose: 400.0 mg/kg/injection, schedule: Q01DX005 (ip), vehicle: saline 94 % of control

NC(=O)N(CCc1ccccc1)N=O
inactive: dose: 6.25 mg/kg/injection, schedule: Q01DX Z (ip), vehicle: carboxymethylcellulose (CMC) 98 % of control | dose: 12.5 mg/kg/injection, schedule: Q01DX Z (ip), vehicle: carboxymethylcellulose (CMC) 109 % of control | dose: 25.0 mg/kg/injection, schedule: Q01DX Z (ip), vehicle: carboxymethylcellulose (CMC) 98 % of control | dose: 50.0 mg/kg/injection, schedule: Q01DX Z (ip), vehicle: carboxymethylcellulose (CMC) 118 % of control | dose: 75.0 mg/kg/injection, schedule: Q01DX Z (ip), vehicle: carboxymethylcellulose (CMC) 103 % of control | dose: 100.0 mg/kg/injection, schedule: Q01DX Z (ip), vehicle: carboxymethylcellulose (CMC) 114 % of control | dose: 150.0 mg/kg/injection, schedule: Q01DX Z (ip), vehicle: carboxymethylcellulose (CMC) 120 % of control | dose: 200.0 mg/kg/injection, schedule: Q01DX Z (ip), vehicle: carboxymethylcellulose (CMC) 111 % of control

O=[N+]([O-])c1ccccc1C1=Cc2cccn2-c2ccccc2S1(=O)=O
inactive: [1] 95 % of control | [2] 100 % of control

Nc1nc2c(=O)[nH]c(=O)[nH]c2n1C1OC(CO)C(O)C1O (configuration not stated)
inactive: [18] 102 % of control | [19] 111 % of control

Cc1ccc(S(=O)(=O)N/N=C/C(O)C(O)C(O)C(O)CO)cc1 (configuration not stated)
inactive: [20] 102 % of control | dose: 200.0 mg/kg/injection, schedule: Q01DX009 (ip), vehicle: saline with Tween-80 102 % of control | dose: 400.0 mg/kg/injection, schedule: Q01DX009 (ip), vehicle: saline with Tween-80 100 % of control

COCC(=O)C(C(C)=O)C(c1ccc2c(c1)OCO2)C(C(C)=O)C(=O)COC (configuration not stated)
inactive: [20] 87 % of control

O=P(c1ccccc1)(N1CCOCC1)N1CCOCC1
inactive: [15] 94 % of control | [16] 104 % of control | [17] 110 % of control

CCCCOP(=O)(OCCCC)SCl
inactive: [12] 95 % of control | [13] 92 % of control

COc1ccc(C(=O)CC(c2ccccc2)N2CCCCC2)cc1OC (configuration not stated)
inactive: [9] 100 % of control | [10] 108 % of control | [11] 105 % of control

CC1(C)SC2C(NC(=O)C(C(=O)O)c3ccccc3)C(=O)N2C1C(=O)O (configuration not stated)
inactive: dose: 25.0 mg/kg/injection, schedule: Q01DX009 (ip), vehicle: saline 103 % of control | dose: 50.0 mg/kg/injection, schedule: Q01DX001 (ip), vehicle: saline 107 % of control | dose: 50.0 mg/kg/injection, schedule: Q01DX009 (ip), vehicle: saline 103 % of control | [18] 95 % of control | dose: 100.0 mg/kg/injection, schedule: Q01DX009 (ip), vehicle: saline 100 % of control and 101 % of control | [19] 102 % of control | dose: 200.0 mg/kg/injection, schedule: Q01DX009 (ip), vehicle: saline 105 % of control | dose: 400.0 mg/kg/injection, schedule: Q01DX001 (ip), vehicle: saline 101 % of control | dose: 400.0 mg/kg/injection, schedule: Q01DX009 (ip), vehicle: saline 100 % of control
